# Values quoted from earlier work in PubChem BioAssay AID1259409 (Chemical Carcinogenesis Research Information System (CCRIS), 2018).
# Test system: rodent chemically induced tumor inhibition, incidence and multiplicity
# Assay: CCRIS tumor inhibitor studies
# Details: Promoter: NONE USED
smiles,measurement,setting,value
O=C1O[C@H]([C@@H](O)CO)C(O)=C1O,"tumour outcome (control, treated, inhibition, significance)","Carcinogen: N-METHYL-N-NITROSOUREA, 684-93-5, Dose [Inhibitor]: 1% IN 20% FAT DIET DAILY STARTING 2 WK BEFORE START OF CARCINOGEN TREATMENT AND CONTINUING FOR DURATION OF STUDY (STUDY, Route [Inhibitor]: ORAL, Species: RAT, Strain/Sex: F344/FEMALE, Target Tissue: Type of Lesion: MAMMARY GLAND: FIBROADENOMA, Dose [Carcinogen]: 2 MG 2/WK FOR 2 WK","25%, 38%, -52%, not significant"
same,"tumour outcome (control, treated, inhibition, significance)","Carcinogen: N-NITROSOMORPHOLINE, 59-89-2, Dose [Inhibitor]: 22.7 G/KG OF DIET 5 D/WK FOR 2 YR STARTING SIMULTANEOUSLY WITH CARCINOGEN TREATMENT AT 8 WK OF AGE AND CONTINUING FOR DU, Route [Inhibitor]: ORAL, Species: RAT, Strain/Sex: MRC/MALE, Target Tissue: Type of Lesion: FORESTOMACH: SQUAMOUS CELL PAPILLOMA, SQUAMOUS CELL CARCINOMA, Dose [Carcinogen]: 0.15 G/L DRINKING WATER 5 D/WK FOR 2 YR","1/41 (2%), 4/47 (9%), -350%, not calculated"
same,"tumour outcome (control, treated, inhibition, significance)","Carcinogen: N-NITROSOMORPHOLINE, 59-89-2, Dose [Inhibitor]: 22.7 G/KG OF DIET 5 D/WK FOR 2 YR STARTING SIMULTANEOUSLY WITH CARCINOGEN TREATMENT AT 8 WK OF AGE AND CONTINUING FOR DU, Route [Inhibitor]: ORAL, Species: RAT, Strain/Sex: MRC/MALE, Target Tissue: Type of Lesion: LIVER: KUPFFER CELL SARCOMA, Dose [Carcinogen]: 0.15 G/L DRINKING WATER 5 D/WK FOR 2 YR","28/41 (68%), 34/47 (72%), -6%, not calculated"
same,"tumour outcome (control, treated, inhibition, significance)","Carcinogen: N-NITROSOMORPHOLINE, 59-89-2, Dose [Inhibitor]: 22.7 G/KG OF DIET 5 D/WK FOR 2 YR STARTING SIMULTANEOUSLY WITH CARCINOGEN TREATMENT AT 8 WK OF AGE AND CONTINUING FOR DU, Route [Inhibitor]: ORAL, Species: RAT, Strain/Sex: MRC/MALE, Target Tissue: Type of Lesion: LIVER: LIVER CELL CARCINOMA, Dose [Carcinogen]: 0.15 G/L DRINKING WATER 5 D/WK FOR 2 YR","17/41 (41%), 20/47 (43%), -5%, not calculated"
same,"tumour outcome (control, treated, inhibition, significance)","Carcinogen: TRANS-5-AMINO-3-[2-(5-NITRO-2-FURYL)VINYL]-1,2,4-OXADIAZOLE;SQL8506, 28754-68-9, Carcinogen: TRANS-5-AMINO-3-[2-(5-NITRO-2-FURYL)VINYL]-1,2,4-OXADIAZOLE;SQL8506, 28754-68-9, Dose [Inhibitor]: 2 G/KG 16 HR BEFORE THE 1ST CARCINOGEN DOSE FOLLOWED BY ADDITIONAL DOSES IMMEDIATELY BEFORE EACH DOSE OF CARCINOGEN (STU, Route [Inhibitor]: INTRAPERITONEAL, Species: MOUSE, Strain/Sex: CD-1/FEMALE, Target Tissue: Type of Lesion: HEMATOPOIETIC SYSTEM: MYELOID LEUKEMIA, Dose [Carcinogen]: 1 G/KG 2/D FOR 5 D EVERY 4 WK FOR 3 COURSES OF TREATMENT","7/137 (5%), 3/45 (7%), -40%, not calculated"
same,"tumour outcome (control, treated, inhibition, significance)","Carcinogen: TRANS-5-AMINO-3-[2-(5-NITRO-2-FURYL)VINYL]-1,2,4-OXADIAZOLE;SQL8506, 28754-68-9, Carcinogen: TRANS-5-AMINO-3-[2-(5-NITRO-2-FURYL)VINYL]-1,2,4-OXADIAZOLE;SQL8506, 28754-68-9, Dose [Inhibitor]: 2 G/KG 16 HR BEFORE THE 1ST CARCINOGEN DOSE FOLLOWED BY ADDITIONAL DOSES IMMEDIATELY BEFORE EACH DOSE OF CARCINOGEN (STU, Route [Inhibitor]: INTRAPERITONEAL, Species: MOUSE, Strain/Sex: CD-1/FEMALE, Target Tissue: Type of Lesion: LYMPHOID TISSUE: NONTHYMIC LYMPHOMA, Dose [Carcinogen]: 1 G/KG 2/D FOR 5 D EVERY 4 WK FOR 3 COURSES OF TREATMENT","8/137 (6%), 2/45 (4%), 33%, not calculated"
same,"tumour outcome (control, treated, inhibition, significance)","Carcinogen: TRANS-5-AMINO-3-[2-(5-NITRO-2-FURYL)VINYL]-1,2,4-OXADIAZOLE;SQL8506, 28754-68-9, Carcinogen: TRANS-5-AMINO-3-[2-(5-NITRO-2-FURYL)VINYL]-1,2,4-OXADIAZOLE;SQL8506, 28754-68-9, Dose [Inhibitor]: 2 G/KG 16 HR BEFORE THE 1ST CARCINOGEN DOSE FOLLOWED BY ADDITIONAL DOSES IMMEDIATELY BEFORE EACH DOSE OF CARCINOGEN (STU, Route [Inhibitor]: INTRAPERITONEAL, Species: MOUSE, Strain/Sex: CD-1/FEMALE, Target Tissue: Type of Lesion: LYMPHOID TISSUE: THYMIC LYMPHOMA, Dose [Carcinogen]: 1 G/KG 2/D FOR 5 D EVERY 4 WK FOR 3 COURSES OF TREATMENT","22/137 (16%), 7/45 (16%), 0%, not calculated"
same,"tumour outcome (control, treated, inhibition, significance)","Carcinogen: TRANS-5-AMINO-3-[2-(5-NITRO-2-FURYL)VINYL]-1,2,4-OXADIAZOLE;SQL8506, 28754-68-9, Carcinogen: TRANS-5-AMINO-3-[2-(5-NITRO-2-FURYL)VINYL]-1,2,4-OXADIAZOLE;SQL8506, 28754-68-9, Dose [Inhibitor]: 2 G/KG 16 HR BEFORE THE 1ST CARCINOGEN DOSE FOLLOWED BY ADDITIONAL DOSES IMMEDIATELY BEFORE EACH DOSE OF CARCINOGEN (STU, Route [Inhibitor]: INTRAPERITONEAL, Species: MOUSE, Strain/Sex: CD-1/FEMALE, Target Tissue: Type of Lesion: STOMACH: SQUAMOUS CARCINOMA, Dose [Carcinogen]: 1 G/KG 2/D FOR 5 D EVERY 4 WK FOR 3 COURSES OF TREATMENT","60/137 (44%), 14/45 (31%), 30%, not calculated"
same,"tumour outcome (control, treated, inhibition, significance)","Carcinogen: UV IRRADIATION, Dose [Inhibitor]: 0.3% IN DIET BEGINNING 10 D PRIOR TO CARCINOGEN DOSE AND CONTINUING FOR DURATION OF STUDY (STUDY DURATION: 27 WK), Route [Inhibitor]: ORAL, Species: MOUSE, Strain/Sex: SKH/HRL/FEMALE, Target Tissue: Type of Lesion: SKIN: CARCINOMA OR PAPILLOMA, Dose [Carcinogen]: 1.13 J/CM2/D INCREASED EVERY 2 WK TO A FINAL VALUE OF 1.97 J/CM2/D 5 D/WK FOR 15 WK (TOTAL EXPOSURE: 135 J/CM2)","23/44 (52%), 24/39 (62%), -19%, not calculated"
same,"tumour outcome (control, treated, inhibition, significance)","Carcinogen: UV IRRADIATION, Dose [Inhibitor]: 5% IN DIET BEGINNING 10 D PRIOR TO CARCINOGEN DOSE AND CONTINUING FOR DURATION OF STUDY (STUDY DURATION: 27 WK), Route [Inhibitor]: ORAL, Species: MOUSE, Strain/Sex: SKH/HRL/FEMALE, Target Tissue: Type of Lesion: SKIN: PAPILLOMA OR CARCINOMA, Dose [Carcinogen]: 1.13 J/CM2/D INCREASED EVERY 2 WK TO A FINAL VALUE OF 1.97 J/CM2/D 5 D/WK FOR 15 WK (TOTAL EXPOSURE: 135 J/CM2)","23/44 (52%), 15/38 (39%), 25%, not calculated"
same,"tumour outcome (control, treated, inhibition, significance)","Carcinogen: UV IRRADIATION, Dose [Inhibitor]: 10% IN DIET BEGINNING 10 D PRIOR TO CARCINOGEN DOSE AND CONTINUING FOR DURATION OF STUDY (STUDY DURATION: 27 WK), Route [Inhibitor]: ORAL, Species: MOUSE, Strain/Sex: SKH/HRL/FEMALE, Target Tissue: Type of Lesion: SKIN: PAPILLOMA OR CARCINOMA, Dose [Carcinogen]: 1.13 J/CM2/D INCREASED EVERY 2 WK TO A FINAL VALUE OF 1.97 J/CM2/D 5 D/WK FOR 15 WK (TOTAL EXPOSURE: 135 J/CM2)","23/44 (52%), 14/40 (35%), 33%, not calculated"
same,outcome,"Dose [Inhibitor]: 22.7 G/KG OF DIET 5 D/WK FOR 2 YR STARTING SIMULTANEOUSLY WITH CARCINOGEN TREATMENT AT 8 WK OF AGE AND CONTINUING FOR DU, Route [Inhibitor]: ORAL, Species: RAT, Strain/Sex: MRC/MALE, Target Tissue: Type of Lesion: FORESTOMACH: SQUAMOUS CELL PAPILLOMA, SQUAMOUS CELL CARCINOMA","0/37 (0%), 21/39 (54%), not calculated"
same,"tumour outcome (control, treated, inhibition, significance)","Dose [Inhibitor]: 22.7 G/KG OF DIET 5 D/WK FOR 2 YR STARTING SIMULTANEOUSLY WITH CARCINOGEN TREATMENT AT 8 WK OF AGE AND CONTINUING FOR DU, Route [Inhibitor]: ORAL, Species: RAT, Strain/Sex: MRC/MALE, Target Tissue: Type of Lesion: LIVER: KUPFFER CELL SARCOMA","13/37 (35%), 7/39 (18%), 49%, not significant"
same,"tumour outcome (control, treated, inhibition, significance)","Dose [Inhibitor]: 22.7 G/KG OF DIET 5 D/WK FOR 2 YR STARTING SIMULTANEOUSLY WITH CARCINOGEN TREATMENT AT 8 WK OF AGE AND CONTINUING FOR DU, Route [Inhibitor]: ORAL, Species: RAT, Strain/Sex: MRC/MALE, Target Tissue: Type of Lesion: LIVER: LIVER CELL CARCINOMA","12/37 (32%), 10/39 (26%), 19%, not significant"
